Laboratory results reported in patent US6576811B1, “Transgenic rat with human normal type c-Ha-ras gene” (National Cancer Center Research Institute, priority 1998, dated 2003).
“And” between values parts separate entries of the source, which are not always exact repeats. Equal values may be shown once. Marks after values point to notes of the source that are not given here.

Key:
Hras128 rats [1] = assay: BBN-induced urinary bladder tumors in Hras128 rats; format: in vivo, rat
Method: (§1) In the same manner as in Example 2, 0.05% N-butyl-N-(4-hydroxybutyl)nitrosoamine (BBN) was administered mixed with drinking water to Hras128 rats and the wild type rats for 10 weeks, to induce bladder tumors. The incidences of bladder tumors (papillomas and carcinomas combined) are shown in Table 11, the mutation of the human c-Ha-ras proto-oncogene codons 12 and 61 and endogeneous rat H-ras shown in Table 12.

wild type rats = assay: BBN-induced urinary bladder tumors in wild type rats; format: in vivo, rat; conditions: Wild female
Method: as §1

[2] = tested on: endogenous Ha-ras gene (rat); assay: Mutation analysis (PCR-SSCP) of the endogenous Ha-ras gene in carcinogen-induced tumors
Description: Single-stranded DNA confirmation polymorphism (SSCP) analysis is able to be performed according to the followings; T. Sekiya. Protein, Nucleic Acid, Enzyme, vol. 41, No. 5, 539, 1996.
Possible mutations in exons 1 to 4 of the human Ha-ras proto-oncogene and exons 1 and 2 of the endogenous gene were examined by PCR-SSCP analysis. Using human or rat specific primers, only two bands appeared on the gals. With common primers (cHras21F and cHras21R) for Ha-ras exon 2 of both man and rats, four bands were detected. Human or rat specific bands were identified by signals from normal DNA of the transgenic and non-transgenic rats. DNA from T24 having a mutation in human Ha-ras of codon 12, GGC to GTC and that from pSK2 having a mutation in the codon 61, CAG to CTG, gave clearly mobility shifted bands in the assays (FIG. 4). However, a GGC to GAC mutation of the transgene enriched by PCR after RFLP analysis as described below, which was frequently observed in tumors induced by MNU in human Ha-ras proto-oncogene transgenic mice, could not be detected by SSCP -PCR analysis. In 44 tumors from Hras128 transgenic rats treated with MNU, mutations were not detected in exons 1 to 4 of the introduced human and endogenous c-Ha-ras genes under any of four SSCP conditions (at 4 or 20° C., with or without 5% glycerol) (Table 1). In contrast, a relatively high frequency (6 of 21 tumors of non-transgenic rats (28.6%) of GGA to GAA mutations in codon 12 of the endogenous Ha-ras gene was detected in mammary carcinomas of non-transgenic using PCR-SSCP analysis followed by direct sequencing (Table 1).

[3] = tested on: human c-Ha-ras proto-oncogene (transgene); assay: Mutation analysis (RFLP, PCR-SSCP) of the transgene in carcinogen-induced tumors
Description: Single-stranded DNA confirmation polymorphism (SSCP) analysis is able to be performed according to the followings; T. Sekiya. Protein, Nucleic Acid, Enzyme, vol.
Possible mutations in exons 1 to 4 of the human Ha-ras proto-oncogene and exons 1 and 2 of the endogenous gene were examined by PCR-SSCP analysis.
RFLP analysis is able to perform according to the followings; Nagase, et al., Protein, Nucleic Acid, Enzyme, vol.

[4] = tested on: wild type rats (non Tg rats); assay: DMBA-induced mammary carcinomas in wild type rats; format: in vivo, rat
Description: (§4) Well established mammary carcinogens, such as 7,14-dimethylbenz[a]anthracene (DMBA) and 2-amino-1-methyl-6-phenylimidazo[4,5-]pyridlne (PhIP) were given to the Hras128 rats in the same manner as in previous reports.
(§5) The number of tumor indicates number of lesions per rat and the sizes of the tumors indicates their diameter (mm).

Hras128 rats [5] = assay: DMBA-induced mammary carcinomas in Hras128 rats
Description: as §4, §5

wild rats = assay: ENU-induced transplacental carcinogenesis in wild rats; format: in vivo, rat
Method: (§2) The effects of transplacental administration of carcinogenic substances were examined in offsprings of females and males of Hras128 rats and wild rats.
(§3) Transplacental administration of ethylnitrosourea (ENU) was performed and incidence of tumors in many organs of the bearing rats are shown in Table 14.

Hras128 rats [6] = assay: ENU-induced transplacental carcinogenesis in Hras128 (Tg 128) rats; format: in vivo, rat; conditions: for No. of tumor bearing rat/total No. of rat / Tumor incidence, CNS / Tumor incidence, kidney / Tumor incidence, mammary gland / Tumor incidence, papilloma / Tumor incidence, spleen: transplacental ENU
Method: as §2, §3

[7] = Hras128 female, bladder papillomas and carcinomas combined, 20 rats
[8] = bladder papillomas and carcinomas combined, 15 rats
[9] = BBN-induced bladder tumors, Hras128, 27 tumors examined
[10] = BBN-induced bladder tumors, Wild, 17 tumors examined
[11] = DMBA-induced mammary carcinomas, Hras128, 20 tumors examined
[12] = DMBA-induced mammary carcinomas, Wild, 7 tumors examined
[13] = DMBA-induced mammary carcinomas, Hras128, 20 tumors examined, RFLP
[14] = Hras128, mammary carcinomas, 14 rats

CCCCN(CCCCO)N=O [BBN, N-butyl-N-(4-hydroxybutyl)nitrosoamine]
Incidence of carcinomas (fraction) (Hras128 rats [1]; Hras128 female, bladder): 11/14
No. of tumor-bearing rats (Hras128 rats [1]; Hras128 female, bladder papillomas and carcinomas combined, 0.05% BBN in drinking water 10 weeks, 20 rats): 19
No. of tumor-bearing rats (%) (Hras128 rats [1]; [7]): 95%
No. of tumors/rat (Hras128 rats [1]; [7]): 13.2 ± 6.8^b
Incidence of carcinomas (figure in parentheses) (Hras128 rats [1]; Hras128 female, bladder, percent sign not given): 35.3
Sensitivity of the Hras128 rat to BBN carcinogenesis in the bladder (Hras128 rats [1]; rat, in vivo): slightly elevated sensitivity
Incidence of carcinomas (fraction) (wild type rats; bladder): 4/13
No. of tumor-bearing rats (wild type rats; bladder papillomas and carcinomas combined, 0.05% BBN in drinking water 10 weeks, 15 rats): 15
No. of tumor-bearing rats (%) (wild type rats; [8]): 100%
No. of tumors/rat (wild type rats; [8]): 7.1 ± 5.2
Incidence of carcinomas (figure in parentheses) (wild type rats; bladder, percent sign not given): 30.8
Endogenous (rat) exon 1 mutations, number of tumors [2, 9]: 0
Endogenous (rat) exon 2 mutations, number of tumors [2, 9]: 0
Endogenous (rat) exon 1 mutations, % [2, 10]: 5.9%
Endogenous (rat) exon 2 mutations, number of tumors [2, 10]: 0
Endogenous (rat) exon 1 mutations, number of tumors ([2]; BBN-induced bladder tumors, Wild, 17 tumors examined, GGA to GAA): 1/17 and 1
Transgene codon 12 mutations, % [3, 9]: 7.4%
Transgene codon 61 mutations, number of tumors [3, 9]: 0
Transgene mutations total, % [3, 9]: 7.4%
Transgene mutations total, number of tumors [3, 9]: 2
Transgene codon 12 mutations, number of tumors ([3]; BBN-induced bladder tumors, Hras128, 27 tumors examined, GGC to GAC): 2/27 and 2

Cc1c2ccccc2c(C)c2c1ccc1ccccc12 [DMBA]
Tumor size (diameter) [4]: 13.4 ± 8.20 mm
No. of tumor-bearing rats ([4]; 12 rats): 4
No. of tumor-bearing rats (%) ([4]; 12 rats): 33.3%
No. of tumors/rat ([4]; 12 rats): 0.83 ± 1.75
Endogenous (rat) exon 1 mutations, number of tumors [2, 11]: 0
Endogenous (rat) exon 2 mutations, number of tumors [2, 11]: 0
Endogenous (rat) exon 1 mutations, number of tumors [2, 12]: 0
Endogenous (rat) exon 2 mutations, number of tumors [2, 12]: 0
Transgene codon 12 mutations, % [3, 11]: 30%
Transgene codon 61 mutations, % [3, 11]: 35%
Transgene mutations total, % [3, 11]: 60%
Transgene mutations total, number of tumors [3, 11]: 12
Transgene codon 12 mutations, number of tumors [3, 13]: 6/20 and 6
Transgene codon 61 mutations, number of tumors [3, 13]: 7/20 and 7
Tumor size (diameter) (Hras128 rats [5]; Hras128, mammary carcinomas): 12.6 ± 9.22 mm
No. of tumor-bearing rats (Hras128 rats [5]; [14]): 13
No. of tumor-bearing rats (%) (Hras128 rats [5]; [14]): 92.9%
No. of tumors/rat (Hras128 rats [5]; [14]): 9.39 ± 9.79^b
Sensitivity of the Hras128 rat to DMBA (Hras128 rats [5]; mammary carcinogenesis): very sensitive

CCN(N=O)C(N)=O [ENU, ethylnitrosourea]
No. of tumor bearing rat/total No. of rat (wild rats; Wild 128 Female offspring): 0/7
Tumor incidence, CNS (wild rats; Wild 128 Female offspring): 0
Tumor incidence, kidney (wild rats; Wild 128 Female offspring): 0
Tumor incidence, mammary gland (wild rats; Wild 128 Female offspring): 0
Tumor incidence, papilloma (wild rats; Wild 128 Female offspring): 0
Tumor incidence, spleen (wild rats; Wild 128 Female offspring): 0
No. of tumor bearing rat/total No. of rat (wild rats; Wild 128 Male offspring): 2/6
Tumor incidence, CNS (wild rats; Wild 128 Male offspring): 2/6
Tumor incidence, kidney (wild rats; Wild 128 Male offspring): 0
Tumor incidence, mammary gland (wild rats; Wild 128 Male offspring): 0
Tumor incidence, papilloma (wild rats; Wild 128 Male offspring): 0
Tumor incidence, spleen (wild rats; Wild 128 Male offspring): 0
No. of tumor bearing rat/total No. of rat (Hras128 rats [6]; Tg 128 Female offspring): 6/9
Tumor incidence, CNS (Hras128 rats [6]; Tg 128 Female offspring): 3/9
Tumor incidence, kidney (Hras128 rats [6]; Tg 128 Female offspring): 2/9
Tumor incidence, mammary gland (Hras128 rats [6]; Tg 128 Female offspring): 5/9
Tumor incidence, papilloma (Hras128 rats [6]; Tg 128 Female offspring): 0
Tumor incidence, spleen (Hras128 rats [6]; Tg 128 Female offspring): 2/9
No. of tumor bearing rat/total No. of rat (Hras128 rats [6]; Tg 128 Male offspring): 8/15
Tumor incidence, CNS (Hras128 rats [6]; Tg 128 Male offspring): 6/15
Tumor incidence, kidney (Hras128 rats [6]; Tg 128 Male offspring): 6/15
Tumor incidence, mammary gland (Hras128 rats [6]; Tg 128 Male offspring): 4/15
Tumor incidence, papilloma (Hras128 rats [6]; Tg 128 Male offspring): 3/15
Tumor incidence, spleen (Hras128 rats [6]; Tg 128 Male offspring): 0/15
Occurrence of tumors in the central nervous system, kidney, skin, etc. after trans-placental administration (Hras128 rats [6]; transgenic rat, within a short period): significantly increases
